Read-outs that look alike come from different tables or passages of the source.
System: E. multilocularis metacestodes
Experiment: PGI-assay: drug-induced damage on in vitro cultured metacestodes (Pathogen Box screening cascade and EC50)
Type: cell-based, Echinococcus multilocularis
Details: for PGI release, % of Tx-100 control, average, 5d / PGI release, % of Tx-100 control, average, 12d: confirmatory screening at 10 µM in triplicates, values as % of Tx-100 control; for cytotoxicity at 10 µM: Echinococcus multilocularis
[1] = 10 µM, singlets, 5 days of incubation
[2] = 10 µM, singlets, 12 days of incubation
[3] = 120 h, 10 µM, singlets, 5 days of incubation, read-out: PGI release, % of the Tx-100 control, 5d
[4] = 288 h, 10 µM, singlets, 12 days of incubation, read-out: PGI release, % of the Tx-100 control, 12d

SMILES | PGI release, % of the Tx-100 control, 5d [1] [%] | PGI release, % of the Tx-100 control, 12d [2] [%] | further results
CCCCN(CCCC)c1c(C#N)cc(S(=O)(=O)Nc2ccccc2)cc1C#N [MMV688467] | 17.50 | 35.72 | PGI release, % of Tx-100 control, average, 5d (5 days of incubation): 4.92%; PGI release, % of Tx-100 control, average, 12d (12 days of incubation): 11.29%
Nc1ncnc2n[nH]c(Cc3cccc4ccccc34)c12 [MMV688469] | -0.61 | -1.22 | –
CS(=O)(=O)N1CCC(CCn2nc(Cc3cccc4ccccc34)c3c(N)ncnc32)CC1 [MMV688470] | 1.33 | 2.31 | –
CC(C(=O)Nc1ccc2oc(-c3ccncc3)nc2c1)c1ccccc1 (stereo not drawn) [MMV688471] | -1.25 | 5.56 | –
CC(Oc1cccc(Cl)c1)C(=O)Nc1ccc2oc(-c3ccncc3)nc2c1 (stereo not drawn) [MMV688472] | -0.36 | 0.44 | –
COc1cc(C2=NCCN2)ccc1-n1cc(-c2cccc(C3=NCCN3)c2)nn1 [MMV688474] | -0.50 | -0.97 | –
CC(=O)NCC1CN(c2ccc(-c3ccc(CO)cc3)c(F)c2)C(=O)O1 (stereo not drawn) [MMV688508] | -0.03 | -1.49 | –
O=C(OCc1ccccc1)N1CCC(c2cc(-c3ccncc3)c(-c3ccc(F)cc3)[nH]2)CC1 [MMV688509] | 0.97 | 2.28 | –
N=C(N)c1ccc(-c2cc(-c3ccccc3)on2)cc1 [MMV688514] | -2.10 | 0.39 | –
CC(C)(C)C(=O)N(CCCCCCN1C[C@H](O)[C@@H](O)[C@H](O)[C@H]1CO)C1CCCCCC1 [MMV688543] | -1.12 | -4.43 | –
COc1ccc(C2=NCCN2)cc1-c1cn(-c2cccc(C3=NCCN3)c2)nn1 [MMV688547] | -0.44 | -1.41 | –
CC(C)(C)n1nc(-c2ccccc2)c2c(N)ncnc21 [MMV688548] | -2.51 | 1.17 | –
CCc1ccccc1-n1c(C)cn2c3c(=O)n(C(C(=O)OC)C(C)C)c(=O)n(C)c3nc12 (stereo not drawn) [MMV688550] | -2.01 | -6.25 | –
Cc1nn(C(=O)Nc2cccc(C(F)(F)F)c2)c(C)c1Sc1ncccn1 [MMV688552] | 0.35 | 1.89 | –
O=C(NCc1ccoc1)N1CCN(Cc2ccc3c(c2)OCO3)CC1 [MMV688553] | 0.80 | -2.91 | –
CNc1snc(C)c1C(=O)NCCOc1ccc(OC)cc1 [MMV688554] | -1.97 | 1.18 | –
O=C(NCc1ccco1)N1CCN(Cc2ccc(Cl)s2)CC1 [MMV688555] | 1.40 | 3.17 | –
NCC(c1cccs1)S(=O)(=O)c1ccccc1 (stereo not drawn) [MMV688557] | 0.26 | -2.41 | –
CN1CCC(c2cc(-c3ccncc3)c(-c3ccc(F)cc3)[nH]2)CC1 [MMV688703] | 0.17 | -2.29 | –
Cc1cc2nc(NC(=O)C(C)(C)C)nc(Cl)c2n1Cc1ccc(Cl)cc1 [MMV688704] | 5.09 | -0.53 | –
CON=C(C(=O)OC)c1ccccc1CON=C(C)c1cccc(C(F)(F)F)c1 [MMV688754, Trifloxystrobin] | – | – | cytotoxicity at 10 µM [3]: -1.92%; cytotoxicity at 10 µM [4]: -5.74%
O=[N+]([O-])c1cn2c(n1)OC[C@@H](OCc1ccc(OC(F)(F)F)cc1)C2 [MMV688755, Pretomanid, reference compound] | – | – | cytotoxicity at 10 µM [3]: -0.93%; cytotoxicity at 10 µM [4]: -1.01%
CC(=O)NC[C@H]1CN(c2ccc(N3CCSCC3)c(F)c2)C(=O)O1 [MMV688756, Sutezolid, reference compound] | – | – | cytotoxicity at 10 µM [3]: -3.45%; cytotoxicity at 10 µM [4]: -0.37%
CS(=O)(=O)c1ccc(C(=O)N(CC2CCCO2)c2nc3ccccc3s2)cc1[N+](=O)[O-] (stereo not drawn) [MMV688761] | 1.26 | 0.42 | –
c1ccc(-c2[nH]c3ccccc3c2C(c2ccccn2)N2CCCC2)cc1 (stereo not drawn) [MMV688762] | 0.82 | 0.77 | –
CNc1nnc(Sc2cnn(-c3ccccc3)c(=O)c2Cl)s1 [MMV688763] | 6.98 | 14.69 | –

SMILES | PGI release, % of the Tx-100 control, 5d [1] [%] | PGI release, % of the Tx-100 control, 12d [2] [%] | further results
COc1ccc(-c2onc(C(F)(F)F)c2-c2ccc(Cl)cc2)c(O)c1 [MMV688766] | 7.61 | 28.52 | PGI release, % of Tx-100 control, average, 5d (5 days of incubation): 1.11%; PGI release, % of Tx-100 control, average, 12d (12 days of incubation): 0.26%
Cc1[nH]c2ccccc2c1C(c1cccs1)N1CCN(C)CC1 (stereo not drawn) [MMV688768] | 19.18 | 27.24 | PGI release, % of Tx-100 control, average, 5d (5 days of incubation): 5.02%; PGI release, % of Tx-100 control, average, 12d (12 days of incubation): 7.48%
Cc1ccccc1C(=O)N1NC(=Nc2ccccc2)SC1(C)C [MMV688771] | -0.49 | -1.69 | –
O=C(Cn1ccnc1[N+](=O)[O-])NCc1ccccc1 [MMV688773, Benznidazole, reference compound] | – | – | cytotoxicity at 10 µM [3]: -0.2%; cytotoxicity at 10 µM [4]: 1.37%
CC[C@@H]([C@H](C)O)n1ncn(-c2ccc(N3CCN(c4ccc(OC[C@@H]5CO[C@@](Cn6cncn6)(c6ccc(F)cc6F)C5)cc4)CC3)cc2)c1=O [MMV688774, Posaconazole, reference compound] | – | – | cytotoxicity at 10 µM [3]: -0.69%; cytotoxicity at 10 µM [4]: -1.09%
Cc1cccnc1NC(=O)c1cccc(OCc2c(C)noc2C)c1 [MMV688793] | -3.90 | -0.61 | –
O=C(NCCc1ccn(-c2ccccc2)n1)C1CCCCC1 [MMV688795] | 0.14 | -0.21 | –
O=C(NCc1nnc2n1CCCCC2)c1ccc(-c2ccc(F)cc2)o1 [MMV688796] | -0.28 | -3.38 | –
CC1CCCCN1C(=O)NCCc1coc(-c2ccc(F)cc2)n1 (stereo not drawn) [MMV688797] | -3.70 | -1.62 | –
CS(=O)(=O)c1ccccc1C(=O)N(Cc1ccccc1)c1ccccc1 [MMV688798] | 13.11 | 63.28 | PGI release, % of Tx-100 control, average, 5d (5 days of incubation): -0.92%; PGI release, % of Tx-100 control, average, 12d (12 days of incubation): -1.65%
COc1ccc2nccc(NC(=O)C3CCN(CCc4ccc(Cl)cc4)CC3)c2n1 [MMV688844] | -0.25 | -3.99 | –
O=C(N[C@H](Cc1ccccc1)C(=O)Nc1ccccc1N1CCOCC1)c1cccs1 [MMV688845] | 0.55 | 0.28 | –
Cc1ccccc1CN1CCC(O)(c2ccc(Cl)c(C(F)(F)F)c2)CC1 [MMV688846] | 6.92 | 5.57 | –
CC(C)(C)n1nc(Cc2ccc(F)c(Cl)c2)c2c(N)ncnc21 [MMV688852] | 6.41 | 7.25 | –
CCOc1ccc2cc(-c3nn(C(C)(C)C)c(N)c3C(N)=O)cnc2c1 [MMV688853] | -1.41 | -6.45 | –
CCOc1ccc2cc(-c3nn(CC4CCN(C)CC4)c4ncnc(N)c34)ccc2c1 [MMV688854] | -0.71 | 0.93 | –
CN1CCN(c2cc(-c3ccc(F)cc3)nc(-c3ccncc3)n2)CC1 [MMV688888] | -2.22 | 0.59 | –
Clc1ccc(CCNc2cc(-c3ccccc3)nc3ncnn23)cc1 [MMV688889] | -3.56 | -0.70 | –
COc1cc(Br)cc2cc(C(=O)Nc3cccc(C(F)(F)F)c3)c(=O)oc12 [MMV688891] | -4.56 | -1.74 | –
OC[C@H]1O[C@@H](n2c3ccc(Cl)cc3c3c(-c4cc5ccccc5o4)ncnc32)C(O)[C@H]1O (stereo partly drawn) [MMV688921] | -1.03 | 0.48 | –
CCc1nn(C)c(C(=O)NCc2ccc(Oc3ccc(C)cc3)cc2)c1Cl [MMV688934, Tolfenpyrad] | – | – | cytotoxicity at 10 µM (120 h, read-out: PGI release, % of the Tx-100 control, 5d): -1.16%; cytotoxicity at 10 µM (288 h, read-out: PGI release, % of the Tx-100 control, 12d): 10.3%
O=C(c1ccco1)N(CCCn1ccnc1)c1nc2c(Cl)cccc2s1 [MMV688936] | -2.60 | 13.45 | –
CCOc1ccc(-c2nc(CNCCc3ccc(F)cc3)cs2)cc1 [MMV688938] | 2.65 | 3.55 | –
Cc1ccc2nc(C)c(-c3ccn(Cc4ccccc4)n3)n2c1 [MMV688939] | 15.20 | 102.25 | PGI release, % of Tx-100 control, average, 5d (5 days of incubation): 3.21%; PGI release, % of Tx-100 control, average, 12d (12 days of incubation): 3.18%
COc1cc(CN2CCC3(C=Cc4ccccc43)CC2)cc2c1OCO2 [MMV688941] | -0.50 | -0.49 | –
CC(C)(C)C(O)C(Oc1ccc(-c2ccccc2)cc1)n1cncn1 (stereo not drawn) [MMV688942, Bitertanol] | – | – | cytotoxicity at 10 µM [3]: -0.93%; cytotoxicity at 10 µM [4]: 0.41%

From PMC6216040, “Repurposing of an old drug: In vitro and in vivo efficacies of buparvaquone against Echinococcus multilocularis” (International Journal for Parasitology: Drugs and Drug …, 2018)
